The experiment concerns HepG2. The experiment is described as follows: Cytotoxicity against human HepG2 cells at 1.5 to 200 uM after 72 hrs by WST1 assay. The class given is functional, cell-based. Background: Tetrazolium assays rely on reduction of a dye to a coloured formazan, in cell work by metabolically active cells.

The source made the active and inactive calls. The rule behind the calls is not given here.

`O=c1[nH]c(=O)n([C@H]2C[C@H](O)[C@@H](CO)O2)cc1F`: the outcome was Active.
For `CC(=O)N[C@H]1[C@H](OCCCCCCNC(=O)CCOCC(COCCC(=O)NCCCCCCO[C@@H]2O[C@H](CO)[C@H](O)[C@H](O)[C@H]2NC(C)=O)(COCCC(=O)NCCCCCCO[C@@H]2O[C@H](CO)[C@H](O)[C@H](O)[C@H]2NC(C)=O)NC(=O)CCCC(=O)NCCCCCCOP(=O)(O)OC[C@H]2O[C@@H](n3cc(F)c(=O)[nH]c3=O)C[C@@H]2O)O[C@H](CO)[C@H](O)[C@@H]1O` the value was “Active”.

These data come from ChEMBL document CHEMBL4229476, “Studies directed toward the asialoglycoprotein receptor mediated delivery of 5-fluoro-2'-deoxyuridine for hepatocellular carcinoma” (Bioorg Med Chem Lett, 2018).
